In patent US20230201166A1, “METHODS FOR TREATING CANCER BY INHIBITING CARM1” (DANA-FARBER CANCER INSTITUTE, INC., priority 2020, published 2023):
“Also recorded” adds a separate entry of the source.

Experiments:
[1] = tested on: B16F10 tumors; experiment: B16F10 melanoma tumor model
Protocol: B16F10 or MC38 tumor cells (2×10^5) were injected subcutaneously in 50 μL of PBS into syngeneic C57BL/6J mice. […] Mice receiving an isotype control mAb (Bio X Cell, clone HRPN #BE0088) at the same dose in PBS were used as controls.
For checkpoint blockade experiments, tumor-bearing mice were administered with anti-CTLA4 mAb (clone 9H10, #BP0131, 100 μg/injection) or corresponding isotype control Ab (polyclonal Syrian hamster IgG, 100 μg/mouse). Alternatively, mice received anti-PD1 (clone 29F.1A12, #BE0273, 200 m/injection) or rat IgG2a isotype control Ab, anti-trinitrophenol (Clone: 2A3, 200 μg/injection) starting on day 7 post tumor inoculation and then every 3rd day.

[2] = tested on: B16F10 cells; experiment: RT-qPCR of interferon stimulated genes in B16F10 cells; format: cell-based, murine; details: 0.1-1 μM, 7 days
Protocol: (§1) Total RNA was extracted using the RNeasy Mini Kit (Qiagen) according to the manufacturer's protocol. Extracted RNA (1 μg) was transcribed into cDNA using SuperScript IV VILO master mix with ezDNase enzyme according to the manufacturer's protocol (ThermoFisher). The cDNA samples were diluted and used for real-time quantitative PCR (RT-qPCR). Taqman master mix (ThermoFisher) and gene-specific primers were used for PCR amplification and detection using a QuantStudio 6 Flex Real-Time PCR System (ThermoFisher). The RT-qPCR data were normalized to GAPDH and HPRT (housekeeping genes) and presented as fold change of gene expression in the test sample compared to the control sample.

[3] = tested on: CARM1 activity in tumor cells; experiment: CARM1 activity in tumor cells (me2BAF155 western blot); format: cell-based, human; details: sub-micromolar levels
Protocol: BAF155 is a well-validated target of CARM1. […] Western blots were probed with Abs specific for di-methylated BAF155 protein (me2BAF155), total BAF155 protein and β-actin (loading control).
Whole cell extracts were prepared by lysis and sonication of cells in RIPA buffer [20 mM Tris-HCl (pH 7.5), 150 mM NaCl, 1 mM EDTA, 1 mM EGTA, 1% NP-40, 1% sodium deoxycholate, 2.5 mM sodium pyrophosphate, 1 mM β-glycerophosphate, 1 mM Na3VO4, 1 μg/ml leupeptin] supplemented with Halt Protease and Phosphatase Inhibitor Cocktail (ThermoFisher). Protein concentrations were determined using a Bradford Protein Assay (Bio-Rad). Protein samples (20 […]g) were resolved by SDS-PAGE using 4-12% NuPAGE Novex Bis-Tris mini gels (ThermoFisher) and transferred onto a PVDF membrane (Bio-Rad). Blots were blocked in 5% Blocker powder (Bio-Rad), 0.2% Tween in PBS and then incubated overnight with primary antibodies. Following incubation with secondary detection reagents and subsequent washing, blots were incubated in Western Lightening Plus-ECL substrate (PerkinElmer). Luminescence was captured using a ChemiDoc MP system (Bio-Rad Laboratories).

[4] = tested on: SKBR3, MDA-MB-157 and MDA-MB-436 cells; experiment: RT-qPCR of ISGs in human tumor cells; format: cell-based; details: 2 μM, 7 days
Protocol: RT-qPCR analysis of selected ISGs and IFNs in human SKBR3, MDA-MB-157 and MDA-MB-436 cells treated with vehicle or CARM1 inhibitor (2 μM) for 7 days (n=3/group).
as §1

[5] = tested on: B16F10 tumor cells; experiment: dsDNA damage, γH2AX immunofluorescence; format: cell-based, murine; details: B16F10 melanoma cells
Protocol: Representative immunofluorescence images (left) of γH2AX antibody labeling (purple); nuclei labeled with DAPI. Quantification of number of γH2AX foci/nucleus (right). Data are shown as mean±SEM, ***p<0.001, by unpaired two-sided Mann-Whitney test. Scale bar—[…].
Cells were grown on glass coverslips, washed with PBS and fixed in 4% paraformaldehyde in PBS for 20 min at room temperature. Cells were permeabilized in 0.2% Triton X-100 for 15 min before blocking for 30 min with 10% serum-containing blocker (ThermoFisher). Coverslips were then incubated with primary antibody overnight […] in a humidified chamber, followed by incubation with a secondary antibody for 1 hour. Primary and secondary antibodies were diluted in blocking buffer, and […]. Coverslips were mounted using Prolong Gold Antifade Mounting Medium with DAPI (ThermoFisher). Imaging was performed using a Hamamatsu ORCA-Flash4.0 V3 Digital CMOS camera and Nikon Ti-E Motorized Microscope 2000U microscope with Plan Apo Lamda 60×/1.40 Oil Ph3 DM objectives. Images were captured with Nikon Elements Acquisition Software. All scoring was performed under blinded conditions. Three independent experiments with three biological replicates per group were performed.

[6] = tested on: B16F10-OVA-ZsGreen tumor cells; experiment: T cell cytotoxicity assay, B16F10-OVA-ZsGreen tumor cells with OT-I CD8 T cells; format: cell-based, murine; details: pre-treatment 0.1 μM for 24 hours
Excerpt: FIG. 3K illustrates that inactivation of Carm1 gene in tumor cells elicits tumor immunity, showing sensitization of tumor cells to T cells with a CARM1 inhibitor. […] Vehicle or inhibitor treated tumor cells were co-cultured with OT-I CD8 T cells at indicated E:T ratios (n=7-8 replicates/condition).
A Celigo image cytometer (Nexcelom) was used to study the killing of fluorescent tumor cells by CD8 T cells. Carm1-KO or control-KO B16-OVA-ZsGreen cells were washed with PBS, and 5,000 tumor cells were added per well in flat-bottom 96-well plates (8-10 replicates/group). OT-I CD8 T cells were added at different effector to target ratios. Following 24 or 48 hours of co-culture, the media was removed, and wells were washed with PBS to remove dead tumor cells and CD8 T cells. Live, adherent tumor cells were then counted using the Celigo image cytometer. As an alternative approach, apoptotic tumor cells were counted based on Caspase 3/7 activation. A Caspase-3/7 reagent (Essen Bioscience) was added directly to the culture media (0.5 μM final concentration) after 12, 24 or 48 hours of co-culture of tumor cells with T cells, and positive tumor cells were counted using the image cytometer.

[7] = tested on: RPMI-8226; details: immunodeficient mouse model; cited from earlier work
[8] = tested on: malignant melanoma xenograft model; details: oral dosing; cited from earlier work
[9] = tested on: BT549 TNBC cells; experiment: T cell cytotoxicity assay, BT549 TNBC cells with NY-ESO-1 TCR human CD8 T cells; format: cell-based; details: pre-treatment 0.1 μM for 24 hours
Protocol: FIG. 3L illustrates that inactivation of Carm1 gene in tumor cells elicits tumor immunity, showing T cell cytotoxicity assay with human BT549 TNBC and human CD8 T cells that expressed a NY-ESO-1 TCR. […] In FIGS. 3A-3L, two-way ANOVA was used to determine statistical significance for tumor measurements at time points when all mice were alive. Statistical significance for survival of mice in each treatment group were calculated by Log-rank (Mantel-Cox) test. Bar graphs represent data summarized as mean±S.E.M. and were analyzed by unpaired two-sided Mann-Whitney test. Data shown are representative of three experiments. *p<0.05, **p<0.01, ***p<0.001, ****p<0.0001, ns (non-significant).
T cell cytotoxicity assay using human tumor cells was performed using NY-ESO-1 transduced human CD8 T cells and BT549 human triple negative breast cancer cells which were HLA-A02*01 positive and endogenously expressed the NY-ESO-1 antigen. BT549 cells were co-cultured with human CD8 T cells that expressed a NY-ESO-1 TCR at increasing effector to target (E:T) ratios for 12-72 hours. Cytotoxicity was quantified by flow cytometry. All in vitro cytotoxicity assays were performed in human or murine T cell media (without addition of IL-2).

[10] = 150 mg/kg b.i.d. orally days 7-21, in combination with CTLA-4 mAb

CNC[C@@H](O)COc1ccc(Cl)c(-c2nc(-c3c(C)noc3C)c(C)c(N3CC4(CCN(C(=O)OC)CC4)C3)n2)c1 (stereo in doubt) [EZM2302]
sensitization of tumors to checkpoint blockade [1, 10]: sensitized B16F10 melanomas to checkpoint blockade with a CTLA-4 mAb | survival [1, 10]: significant survival benefit | B16F10 tumor growth ([1]; oral, 150 mg/kg/day, B16F10 tumor bearing mice): significantly suppresses B16F10 tumor growth | interferon stimulated gene (ISG) expression / mRNA levels [2]: induced up regulation of the ISGs expression; also recorded: significantly increased the mRNA levels of these ISGs | suppression of CARM1 activity in tumor cells [3]: suppress CARM1 activity | expression of ISGs in human breast and melanoma cancer cell lines [4]: induced the expression of a similar set of ISGs | γH2AX foci [5]: induced γH2AX foci accumulation | sensitization of tumor cells to CD8 T cells [6]: sensitized them to CD8 T cells | in vivo growth of RPMI-8226 [7]: moderately slow the in vivo growth | anti-tumor activity [8]: anti-tumor activity | in vivo CARM1 inhibition [8]: dose-dependent in vivo CARM1 inhibition | CD8 T cell-mediated cytotoxicity [9]: enhanced CD8 T cell-mediated cytotoxicity
